The record followed here is US6221865A, “Inhibitors of protein isoprenyl transferases” (priority 1998, dated 2001).

Bounds are passed on as bounds.

The target in this experiment is T1, protein farnesyltransferase (Rattus norvegicus, UniProt Q02293+Q04631).
T1 construct: The enzyme is purified according to Reiss, Y., et al., Cell, 62: 81-88 (1990), utilizing steps one through three; from tissue; host or cells: rat brain
Description: Inhibition of farnesyltransferase (scintillation proximity assay, rat brain enzyme, biotin-K Ras B fragment substrate). Particulars: for % inhibition of farnesyltransferase at 1 × 10^-7 M: 1 × 10^-7 M (Table 3); for % inhibition of farnesyltransferase at 1 × 10^-8 M: 1 × 10^-8 M (Table 4); for % inhibition of farnesyltransferase at 1 × 10^-6 M / inhibition at 1 µM: 1 × 10^-6 M (Table 2); for inhibition at 1 µM: read-out: % inhibition of farnesyltransferase at 1 × 10^-6 M. It is filed as biochemical. The procedure, abridged:
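Enzyme from rat brain, partly purified (steps one to three), assayed by SPA kit using 0.1 mM final biotin-K Ras B peptide as prenyl acceptor rather than biotin-lamin. Activity given as percent inhibition.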
(In general: SPA uses beads or plates that emit light when radiolabelled molecules are held near them.)

T1 sequence (Q02293 whole entry, one chain of several): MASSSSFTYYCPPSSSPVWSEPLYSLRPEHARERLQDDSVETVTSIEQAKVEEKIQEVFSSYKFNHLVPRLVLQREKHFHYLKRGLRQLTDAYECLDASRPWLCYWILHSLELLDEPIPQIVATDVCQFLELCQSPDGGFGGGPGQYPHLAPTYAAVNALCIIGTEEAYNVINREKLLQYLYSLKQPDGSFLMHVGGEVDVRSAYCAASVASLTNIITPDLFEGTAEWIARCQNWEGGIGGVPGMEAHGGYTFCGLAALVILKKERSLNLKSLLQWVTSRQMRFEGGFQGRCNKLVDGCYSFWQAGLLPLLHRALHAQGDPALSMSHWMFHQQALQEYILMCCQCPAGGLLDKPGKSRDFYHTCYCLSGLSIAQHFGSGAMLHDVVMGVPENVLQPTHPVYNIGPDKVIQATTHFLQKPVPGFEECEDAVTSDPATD

Regarding `CSCC[C@H](NC(=O)c1ccc(COCc2cccc(N(C)C)c2)cc1-c1ccccc1C)C(=O)O` [Example 941], the “% inhibition of farnesyltransferase at 1 × 10^-7 M” value (from here on “% inhibition … at 1 × 10^-7 M”) was determined as 90%.

As to `CCCCC(CCCC)OCc1ccc(C(=O)N[C@@H](CCSC)C(=O)[O-])c(-c2ccccc2C)c1.[Li+]` [Example 942], the “% inhibition of farnesyltransferase at 1 × 10^-8 M” value (from here on “% inhibition … at 1 × 10^-8 M”) is 58%.

Regarding `CCCCC(Cc1ccccc1Cl)OCc1ccc(C(=O)N[C@@H](CCSC)C(=O)O)c(-c2ccccc2C)c1` (stereo partly drawn) [Example 943], the “% inhibition … at 1 × 10^-8 M” value came to 79%.

With `CCSC[C@H](CC1CCCCC1)N(C)Cc1ccc(C(=O)N[C@@H](CCSC)C(=O)O)c(-c2ccccc2C)c1` [Example 944], the “% inhibition … at 1 × 10^-8 M” value is 88%.

Consider `CCSCC(CC1CCCCC1)N(Cc1ccc(C(=O)N[C@@H](CCSC)C(=O)O)c(-c2ccccc2C)c1)CC(C)C` (stereo partly drawn) [Example 945], for which the “% inhibition … at 1 × 10^-7 M” value is on record as 80%.

With `CCSC[C@H](CC1CCCCC1)N(C=O)Cc1ccc(C(=O)N[C@@H](CCSC)C(=O)O)c(-c2ccccc2C)c1` [Example 946], the “% inhibition … at 1 × 10^-8 M” value is on record as 52%.

On to `CCSC[C@H](CC1CCCCC1)N(Cc1ccc(C(=O)N[C@@H](CCSC)C(=O)O)c(-c2ccccc2C)c1)C(C)=O` [Example 947], for which the “% inhibition … at 1 × 10^-7 M” value came out at 79%.

In the case of `CCSC[C@H](CC1CCCCC1)N(Cc1ccc(C(=O)N[C@@H](CCSC)C(=O)O)c(-c2ccccc2C)c1)C(=O)OC(C)(C)C` [Example 948], the “% inhibition … at 1 × 10^-7 M” value turned out to be 75%.

On to `CCSC[C@H](CC1CCCCC1)N(Cc1ccc(C(=O)N[C@@H](CCSC)C(=O)O)c(-c2ccccc2C)c1)C(=O)c1ccccc1` [Example 949], for which the “% inhibition … at 1 × 10^-7 M” value came to 57%.

With `CCCCS(=O)(=O)N(Cc1ccc(C(=O)N[C@@H](CCSC)C(=O)O)c(-c2ccccc2C)c1)[C@H](CSCC)CC1CCCCC1` [Example 950], the “% inhibition … at 1 × 10^-7 M” value is 71%.

For the compound `CCSC[C@H](CC1CCCCC1)N(Cc1ccc(C(=O)N[C@@H](CCSC)C(=O)O)c(-c2ccccc2C)c1)S(=O)(=O)c1ccccc1` [Example 951], the “% inhibition … at 1 × 10^-7 M” value was 71%.

For `CSCC[C@H](NC(=O)c1ccc(NC(=O)[C@@H]2C[C@@H](O)CN2)cc1-c1ccccc1)C(=O)O` [Example 952], the “% inhibition of farnesyltransferase at 1 × 10^-5 M” value (1 × 10^-5 M (Table 1)) was more than 50%.

For the compound `CSCC[C@H](NC(=O)c1ccc(NC[C@@H]2C[C@H](S)CN2)cc1-c1ccccc1)C(=O)O` [Example 959], the “% inhibition … at 1 × 10^-7 M” value is given as more than 50%.

Turning to `CSCC[C@H](NC(=O)c1ccc(NC[C@H]2NCC[C@H]2S)cc1-c1ccccc1)C(=O)O` [Example 960], the “% inhibition … at 1 × 10^-8 M” value is reported as more than 50%.

For `CSCC[C@H](NC(=O)c1ccc(NC(=O)OCCCl)cc1-c1ccccc1)C(=O)O` [Example 979], the “% inhibition of farnesyltransferase at 1 × 10^-6 M” value (“% inhibition … at 1 × 10^-6 M” below) came to 26%.

As for `CSCC[C@H](NC(=O)c1ccc(CN(C)C(C)(C)Cc2ccccc2)cc1-c1ccccc1C)C(=O)O` [Example 982], the “% inhibition … at 1 × 10^-6 M” value is listed as 64%.

As for `CCCCC(OCc1ccc(C(=O)N[C@@H](CCSC)C(=O)O)c(-c2ccccc2C)c1)c1cncs1` (stereo partly drawn) [Example 985], the “% inhibition … at 1 × 10^-8 M” value is 89%.

Consider `CSCC[C@H](NC(=O)c1ccc(CN(CCC2CCCCC2)Cc2cncs2)cc1-c1ccccc1C)C(=O)O` [Example 986], for which the “% inhibition … at 1 × 10^-8 M” value is listed as 95%.

For `CSCC[C@H](NC(=O)c1ccc(COC2CCN(Cc3ccccc3)C2)cc1-c1ccccc1C)C(=O)O` (stereo partly drawn) [Example 987], the “% inhibition … at 1 × 10^-6 M” value came to 93%.

The inhibition is how much of the control response was suppressed. In the case of `CSCC[C@H](NC(=O)c1ccc(CN2CCC(OCc3ccccc3)C2)cc1-c1ccccc1C)C(=O)O` (stereo partly drawn) [Example 988, N-[4-(3-benzyloxypyrrolidin-1-ylmethyl)-2-(2-methylphenyl)benzoyl]methionine], the inhibition at 1 µM came out at 92%.

As for `CSCC[C@H](NC(=O)c1ccc(CN2CCCC(OCc3ccccc3)C2)cc1-c1ccccc1C)C(=O)O` (stereo partly drawn) [Example 989, N-[4-(3-benzyloxypiperidin-1-ylmethyl)-2-(2-methylphenyl)benzoyl]methionine], the inhibition at 1 µM worked out at 88%.
